Measurements taken from patent publication US20100221304A1, “Bionanocomposite Materials and Methods For Producing and Using the Same” (The Regents of the University of Colorado, a body corporate, priority 2009, published 2010).

Tests used:
SMC = SMC migration, in-growth and contraction in collagen-chitosan scaffolds; assay type: cell-based
Description: In addition, collagen-chitosan scaffolds have been developed as a structural support for the formation of a vascular media equivalent. In particular, the effects of cross-linking and PDGF-BB (with or without heparin or serum) on biomechanical properties, SMC migration, SMC contraction, and wound healing have been evaluated (FIG. 12). […] For example, it enhanced the strength and modulus while inhibited SMC in-growth and contraction. With a low cross-linking condition, the molecule effects of PDGF-BB, a SMC attractant, were studied with or without serum or heparin.

smooth muscle cell (SMC) = assay: SMC contraction and invasion in genipin-crosslinked collagen-chitosan-elastin (CCE) gel constructs; assay type: cell-based
Description: The vascular media, a layer of the blood vessel wall containing smooth muscle cell (SMC), is often the target functional tissue in the construction of biomimetic vascular grafts. It has a major contribution to mechanical properties and biological functions of vessels including contraction and healing. The present inventors have studied the effects of crosslinking and biomolecule conditions in the development of mechanically strong and stable, biologically functional constructs for vascular media equivalents. To this end, genipin was used to crosslink collagen-chitosan-elastin (CCE) constructs, and the effects of genipin concentration on the mechanical properties and SMC activity of CCE gel constructs were examined.
To enhance biological activities of cells on the genipin-treated CCE constructs, soluble molecule factors were incorporated with structural constructs and their effects on SMC activities were evaluated. These conditions include heparin, platelet-derived […] growth factor (PDGF), high-concentrated fetal bovine serum (h-FBS), mixture of heparin and PDGF and mixture of h-FBS and PDGF. […] The ingrowth of SMC in the vascular media equivalent also promoted wound healing process of the construct scaffold by showing the closure of the puncture hole (FIG. 14).

COC(=O)C1=CO[C@@H](O)[C@@H]2C(CO)=CC[C@H]12 [genipin]
SMC in-growth and contraction (SMC; collagen-chitosan scaffolds cross-linked using genipin): inhibited | SMC contraction or invasion in the gels (smooth muscle cell (SMC); genipin at a concentration of 5 mM or above): No SMC contraction or invasion was observed | SMC contraction and invasion in the CCE gels (smooth muscle cell (SMC); genipin crosslinking): significantly inhibited

heparin
PDGF-induced cell migration and contraction (SMC; low cross-linking condition, PDGF-BB with or without serum or heparin): inhibited | PDGF-induced SMC invasion into the crosslinked constructs (smooth muscle cell (SMC)): inhibitory effects
